Reference: patent publication US9422308B2, “Derivatives of docosahexaenoylethanolamide and uses thereof” (The United States of America, as represented by the …, priority 2012, dated 2016)
“And” between values parts separate entries of the source, which are not always exact repeats. Equal entries are not always repeated.

How the values were obtained:
cortical neurons = assay: neurite growth of embryonic mouse neurons (total neurite length/neuron, MAP2 immunostaining); assay type: cell-based; conditions: for effect with respect to cortical neurite growth as compared to DHA: FIGS. 1, 2; for dosage at which activity is exhibited as compared to DHA and synaptamide: dosages 10^-5 nM to 10 nM, FIG. 1
Method: To obtain embryonic mouse neurons for analysis, pregnant female mice were killed by cervical dislocation after exposure to CO2 inhalation. Embryonic neurons were prepared from E18 or P0 mouse hippocampi or cortex and cultured as described previously (Calderon and Kim, J. Neurochem., 90(4):979-88 (2004), errata in J Neurochem., September; 90(6):1540 (2004)), with slight modification. Briefly, hippocampi or cotices were dissected and dissociated by a method using either 0.25% trypsin (Gibco Invitrogen Corporation, Grand Island, N.Y.) in Hank's balanced salt solution (HBSS) or papain (20-30 U/mL) in dissociation media containing cysteine at 37° C. for 15 min. After the dissociation solution was aspirated off, cells were washed with same volume of HBSS, suspended in neurobasal medium (Gibco) containing 2% B27 supplement (Gibco), 1% glutamine/glutamax mix (1:4) (Gibco), 100 U/ml penicillin (Gibco) and 100 μg/ml streptomycin (Gibco), and seeded on poly-D-lysine chambered slides (Lab-Tek, Naperville, Ill.) at a density of 30,000 cells/cm^2. On the second day after seeding, the cells were treated with fatty acids, synaptamide or one of Compounds 1-50 for 48 h. Docosahexaenoic acid (DHA) and oleic acid (OA) were complexed with fatty acid-free bovine serum albumin (BSA; Sigma, St Louis, Mo.) in the presence of α-tocopherol (Sigma) under an argon atmosphere and darkness to prevent oxidation of the fatty acids. The mixture was mixed with fresh Neurobasal medium containing B27 supplement, glutamine/glutamax mix and antibiotics. Final concentrations of α-tocopherol and BSA in the culture medium were 40 μM and 0.01%, respectively. Alternatively, DHA, OA, synaptamide, or one of Compounds 1-50 were dissolved in DMSO and applied directly together with α-tocopherol. In such case, the final concentration of DMSO is less than 0.005%. All stock solutions were aliquoted under argon and stored at −70° C.
Cells were fixed with […] (Sigma) in PBS (pH 7.4) for 30 min. After permeabilization with 0.1% Triton X-100 (Sigma), cells were blocked for 1 h at 37° C. with PBS containing 10% goat serum (Gibco), and then incubated with the primary antibody against microtubule-associated protein (MAP2, mouse monoclonal 1:250; Sigma). After washing with PBS, cells were incubated with the corresponding Cy2-, Cy3-conjugated secondary antibody (Jackson Immunoresearch Laboratories Inc., West Grove, Pa.). For the nuclear staining, 0.06% 4,6-Diamidino-2-Phenylindole (Sigma) was used. After immunostaining, images were collected using an inverted motorized 1×81 Olympus (Melville, N.Y.) and the neurite length was analyzed with Metamorph software (Molecular Devices Corporation, Downingtown, Pa.). To minimize bias, neurons were evaluated blindly without the knowledge of sample identity. Four to six fields/well were chosen at random and only non-clustered neurons were evaluated to ensure the precision of the measurements. From each well, over 100 neurons were evaluated at 20× magnification for total neurite length/neuron. The data were obtained from triplicate wells and the experiments were repeated at least three times.
FIG. 2 provides graphical results of the data shown in Table 2, expressed as total neurite length per neuron. FIG. 3 provides graphical results of these experiments for compounds 11-50 (having designations as provided in Table 1, above), expressed as relative neurite length as compared to untreated controls. FIG. 4 provides graphical results of these experiments for compounds 1-10 (having designations as provided in Table 1, above), as applied to hippocampal neurons.
An additional assay was performed in which Compounds (A8), 4(A10), and 7(A9) were applied at varying dosages (from 10^−5 nM to 10 nM; 10^−5 nM, 10^−4 nM, 10^−2 nM, 0.1 nM, 1 nM, and 10 nM) as compared to DHA, synaptamide, and oleic acid. Neurite growth was measured at each dosage. Results of this assay are provided at FIG. 1.

FAAH = biological target: T1, FAAH (Homo sapiens, UniProt O00519); assay: time course FAAH enzyme assay; assay type: in vitro ADME; conditions: Conc. 1 mM, 0.1 U of FAAH, 37° C., pH=9.0
T1 sequence (O00519 1-579): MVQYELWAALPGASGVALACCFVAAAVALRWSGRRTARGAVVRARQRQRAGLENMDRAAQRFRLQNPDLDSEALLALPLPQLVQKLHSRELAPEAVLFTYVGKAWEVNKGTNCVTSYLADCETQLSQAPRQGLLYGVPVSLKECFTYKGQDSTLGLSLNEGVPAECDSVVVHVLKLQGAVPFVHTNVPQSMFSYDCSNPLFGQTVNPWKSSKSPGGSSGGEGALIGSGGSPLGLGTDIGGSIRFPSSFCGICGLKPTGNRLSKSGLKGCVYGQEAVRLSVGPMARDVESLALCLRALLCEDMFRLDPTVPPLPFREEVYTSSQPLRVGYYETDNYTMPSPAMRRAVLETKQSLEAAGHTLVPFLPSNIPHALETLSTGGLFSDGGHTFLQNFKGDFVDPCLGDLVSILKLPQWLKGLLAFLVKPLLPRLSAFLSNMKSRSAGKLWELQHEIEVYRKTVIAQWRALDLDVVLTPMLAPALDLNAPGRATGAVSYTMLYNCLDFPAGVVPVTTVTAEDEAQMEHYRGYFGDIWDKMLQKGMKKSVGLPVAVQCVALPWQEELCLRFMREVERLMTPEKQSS
Method: Method development: The signal was optimized for each compound by ESI positive or negative ionization mode. A MS2 SIM scan was used to optimize the precursor ion and a product ion analysis was used to identify the best fragment for analysis and to optimize the collision energy.
Analysis: Samples were analyzed by LC/MS/MS using a API 3000 coupled with an Shimadzu HPLC and a CTC PAL chilled autosampler, all […] controlled by Analyst software (ABI). After separation on a C18 reverse phase HPLC column (Agilent, Waters, or equivalent). Mobile phase A was 0.1% AcOH in water. Mobile phase B was 0.1% AcOH in methanol. The flow rate was 0.6 mL/min. The gradient program included a 0.5 min hold at 30% B (the starting conditions), followed by a gradient to 100% B over 2.5 min and a 1 min hold at 100% B. The column was then returned to starting conditions and equilibrated over 1.25 min.
Assay Protocol: Assays were performed at 37° C. at pH=9.0 and involved the use of 0.1 U of FAAH. […] Reaction was terminated after an appropriate time by using protein precipitation treatment with acetonitrile (3:1, v/v).

[1] = cortical neurons, 10 nM (FIG. 2), 48 h

## CC/C=C\C/C=C\C/C=C\C/C=C\C/C=C\C/C=C\CCC(=O)O [DHA, Docosahexaenoic acid, reference compound]
Cortical neurons; cortical neurons, DHA 100 nM (FIG. 2), 48 h
  Neurite Length/Neuron (mean): 14.5 μm

## CC/C=C\C/C=C\C/C=C\C/C=C\C/C=C\C/C=C\CCC(=O)NCCN1CCOCC1 [Compound 4, (4Z,7Z,10Z,13Z,16Z,19Z)—N-(2-morpholinoethyl)docosa-4,7,10,13,16,19-hexaenamide]
Cortical neurons; [1]
  Neurite Length/Neuron (mean): 20.8 μm
Cortical neurons; cortical neurons
  effect with respect to cortical neurite growth as compared to DHA: superior effect
Cortical neurons
  dosage at which activity is exhibited as compared to DHA and synaptamide: activity at significantly lower dosages

## CC/C=C\C/C=C\C/C=C\C/C=C\C/C=C\C/C=C\CCC(=O)NCCO [Synaptamide, Docosahexaenoylethanolamide]
Cortical neurons; [1]
  Neurite Length/Neuron (mean): 29.3 μm
Cortical neurons; cortical neurons, 10 nM (FIG. 2), 48 h, three individual values
  Neurite Length/Neuron, individual values: 33.1 μm and 29.2 μm and 25.5 μm
FAAH; 0 min
  % remaining: 100%
FAAH; 30 min
  % remaining: 5%
FAAH; 60 min
  % remaining: 1%

## CC/C=C\C/C=C\C/C=C\C/C=C\C/C=C\C/C=C\CCC(=O)NCCc1ccccc1 [Compound 7, (4Z,7Z,10Z,13Z,16Z,19Z)—N-phenethyldocosa-4,7,10,13,16,19-hexaenamide]
Cortical neurons; [1]
  Neurite Length/Neuron (mean): 41.8 μm
Cortical neurons; cortical neurons
  effect with respect to cortical neurite growth as compared to DHA: superior effect
Cortical neurons
  dosage at which activity is exhibited as compared to DHA and synaptamide: activity at significantly lower dosages

## CC/C=C\C/C=C\C/C=C\C/C=C\C/C=C\C/C=C\CCC(=O)NCCCCO [Compound 2, (4Z,7Z,10Z,13Z,16Z,19Z)—N-(4-hydroxybutyl)docosa-4,7,10,13,16,19-hexaenamide]
Cortical neurons; [1]
  Neurite Length/Neuron (mean): 6.9 μm

## CC/C=C\C/C=C\C/C=C\C/C=C\C/C=C\C/C=C\CCC(=O)N[C@H](C)CO [Compound 10, (4Z,7Z,10Z,13Z,16Z,19Z)—N—((R)-1-hydroxypropan-2-yl)docosa-4,7,10,13,16,19-hexaenamide]
Cortical neurons; [1]
  Neurite Length/Neuron (mean): 9.5 μm

## CC/C=C\C/C=C\C/C=C\C/C=C\C/C=C\C/C=C\CCC(=O)NC(C)(C)CO [Compound 8, (4Z,7Z,10Z,13Z,16Z,19Z)—N-(1-hydroxy-2-methylpropan-2-yl)docosa-4,7,10,13,16,19-hexaenamide]
Cortical neurons; [1]
  Neurite Length/Neuron (mean): 4.5 μm

## CC/C=C\C/C=C\C/C=C\C/C=C\C/C=C\C/C=C\CCC(=O)N[C@@H](C)CO [Compound 9, (4Z,7Z,10Z,13Z,16Z,19Z)—N—((S)-1-hydroxypropan-2-yl)docosa-4,7,10,13,16,19-hexaenamide]
Cortical neurons; [1]
  Neurite Length/Neuron (mean): 9.6 μm

## CC/C=C\C/C=C\C/C=C\C/C=C\C/C=C\C/C=C\CCC(=O)NCCN(C)C [Compound 5, (4Z,7Z,10Z,13Z,16Z,19Z)—N-(2-(dimethylamino)ethyl)docosa-4,7,10,13,16,19-hexaenamide]
Cortical neurons; [1]
  Neurite Length/Neuron (mean): 6.7 μm

## CC/C=C\C/C=C\C/C=C\C/C=C\C/C=C\C/C=C\CCC(=O)NCCOC [Compound 6, (4Z,7Z,10Z,13Z,16Z,19Z)—N-(2-methoxyethyl)docosa-4,7,10,13,16,19-hexaenamide]
Cortical neurons; [1]
  Neurite Length/Neuron (mean): 9.1 μm

## CCCCC/C=C\C/C=C\C/C=C\C/C=C\CCCC(=O)NCCO [AEA, anandamide]
FAAH; 0 min
  % remaining: 74%
FAAH; 30 min
  % remaining: 1%
FAAH; 60 min
  % remaining: 1%

## CC/C=C\C/C=C\C/C=C\C/C=C\C/C=C\C/C=C\CCC(=O)NCCCO [Compound 3, (4Z,7Z,10Z,13Z,16Z,19Z)—N-(3-hydroxypropyl)docosa-4,7,10,13,16,19-hexaenamide]
Cortical neurons; [1]
  Neurite Length/Neuron (mean): 3.8 μm
